Data taken from patent US10499676B2, “Intestinal barrier integrity” (N.V. Nutricia, priority 2004, dated 2019).

Key:
[1] = test system: intestinal epithelial cell line T84 monolayers incubated with IL-4; assay: Effect of LC-PUFA on IL-4 mediated barrier disruption: TER and 4 kDa FITC-dextran flux; type: cell-based, human; details: for IL-4 Flux / IL-4 TER: fatty acid 100 μM, 48 hr pre-incubation then 48 hr co-incubation with IL-4 2 ng/ml; for protective effect on IL-4 mediated barrier destruction (Flux), time and dose dependent: FIGS. 2A and 2B, 10 μM and 100 μM, 4 kD dextran flux
Procedure: (§1) Monolayers (MC) of intestinal epithelial cell lines T84 (American Type Culture Collection (ATTC), Manassas, USA) were cultured on transwell filters (Corning, Costar BV, The Netherlands) allowing both mucosal and serosal sampling and stimulation of human intestinal epithelial cells. Two weeks post confluency the monolayers were incubated in the luminal compartment with polyunsaturated fatty acids ARA (arachidonic acid; 5,8,11,14-eicosatetraenoic acid), DHA (cis-4,7,10,13,16,19 docosahexaenoic acid), EPA (eicosapentaenoic acid) or control palmitic (C 16:0) acid (Palm) (Sigma, St. Louis, USA). The latter procedure was chosen to mimic the in vivo administration route of the dietary compounds. Cells were incubated with ARA, DHA, EPA, or palmitic acid for 0, 24, 48 and 72 hr at different concentrations (10 μM and 100 μM). Experiments were performed to evaluate basal barrier integrity. The epithelial barrier function was determined by measuring the transepithelial resistance (TER, Ω·cm^2) was measured by epithelial volt-ohm meter (EVOM; World Precision Instruments, Germany) and permeability for 4 kD FITC dextran (paracellular permeability marker, Sigma, USA). Resistance (Epithelial permeability for 4 kDa FITC-dextran was determined as follows. Prior to dextran fluxes the medium was refreshed with culture medium without phenol red for one hour followed by addition of 5 μl (stock 100 mg/ml) 4 kDa FITC-dextran to the lumenal compartment. After 30 min incubation 100 μl sample was collected from the serosal compartment and the fluorescent signal measured at excitation wavelength 485 nm and emission 520 nm (FLUOstar Galaxy®, BMG Labtechnologies, USA). FITC-dextran fluxes were calculated as pmol FITC-dextran/cm^2/h. Statistical analyses were performed using the ANOVA (SPSS version 10).
Monolayers (MC) of intestinal epithelial cell lines T84 (ATCC, USA) were cultured on transwell filters (Corning, Costar BV, The Netherlands) allowing both mucosal and serosal sampling and stimulation of human intestinal epithelial cells. Two weeks post confluency the monolayers were incubated in the presence of IL-4 (2 ng/ml, serosal compartment, Sigma, USA) with or without polyunsaturated fatty acids ARA, DHA, GLA, EPA, or control palmitic acid (10 μM or 100 μM, mucosal compartment, Sigma, St. Louis, USA). Cells were pre-incubated with ARA, DHA, EPA, or palmitic acid for 48 hr prior to the IL-4 incubation. The co-incubation of PUFA's and palmetic acid with IL-4 was continued for another 48 hr; while culture medium and additives were changed every 24 hr. The epithelial barrier function was determined by measuring the transepithelial resistance (TER) and permeability as described in example 1. Statistical evaluation was performed as described in example 1.

[2] = test system: intestinal epithelial cell line T84 monolayers; assay: Effect of LC-PUFA on basal (spontaneous) barrier integrity: TER and 4 kDa FITC-dextran flux; type: cell-based, human; details: for Flux / Resistance (TER): fatty acid 100 μM, 72 hr incubation, spontaneous barrier integrity; for Flux: 4 kDa FITC-dextran; for basal barrier integrity (TER), time and dose dependent effect: FIGS. 1A and 1B, 10 μM and 100 μM
Procedure: as §1

[3] = test system: MUC-2 expression in intestinal epithelial T84 cells; details: FIG. 4, 24 h, 0.025-4.0 mM, compared to propionate and butyrate

Compound	IL-4 Flux [1] [pmol FITC-dextran/cm^2/h]	IL-4 TER [1]	Flux [2] [pmol FITC-dextran/cm^2/h]	Resistance (TER) [2]	MUC-2 expression (mucus production) [3]	protective effect on IL-4 mediated barrier destruction (Flux), time and dose dependent [1]	basal barrier integrity (TER), time and dose dependent effect [2]
CCCCCCCCCCCCCCCC(=O)O [Palmitic acid, palmitic (C 16:0) acid, reference compound]	777	321 Ω·cm^2	161	831 Ω·cm^2			
CC(=O)O [acetate]					more potent in stimulating MUC-2 expression		
CC/C=C\C/C=C\C/C=C\C/C=C\C/C=C\CCCC(=O)O [EPA, eicosapentaenoic acid]	228	539 Ω·cm^2	65	1493 Ω·cm^2			
CCCCC/C=C\C/C=C\C/C=C\C/C=C\CCCC(=O)O [ARA, 5,8,11,14-eicosatetraenoic acid]	218	636 Ω·cm^2	28	1816 Ω·cm^2		decreased 4 kD dextran flux	increased resistance
CCCCC/C=C\C/C=C\C/C=C\CCCCC(=O)O [GLA]						decreased 4 kD dextran flux	increased resistance
CCC=CCC=CCC=CCC=CCC=CC/C=C\CCC(=O)O [DHA, cis-4,7,10,13,16,19 docosahexaenoic acid]	271	547 Ω·cm^2	72	1574 Ω·cm^2		decreased 4 kD dextran flux	increased resistance
